Source: PMC12190640 (2025)

Tested on: 37Cy3-74Cy5-riboSAM (RNA, riboswitch, Cy3-modified U at 37, Cy5-modified U at 74) GGGAAGAAAUAACAAUCAACGACGUAUCAUUGUGCCUCGCUUUCCGCGGGGCGAUAAGUCCUGAAGAAAGGGAUGAUAUGACAUAAGAACAUCGG
Assay: smFRET (TIRF)
Conditions: 50 mM Na+, 10 mM Tris-HCl pH 8.0, 25 °C, 0.5 mM SAM

In the case of C[S+](CC[C@H](N)C(=O)O)C[C@H]1O[C@@H](n2cnc3c(N)ncnc32)[C@H](O)[C@@H]1O (some centres unmarked), the binding (2 mM Mg2+, stable EFRET ~0.8 population 18.5% to 37.6%) is reported as “yes” and the binding (no Mg2+, no significant structural transition, same at 0.05 mM Mg2+) is reported as “weak”.
